Experimental data: PubChem BioAssay AID330 (DTP/NCI, 2004)
“And” between values parts separate entries of the source, which are not always exact repeats. Equal values may be shown once. Toxic doses and inconclusive results are not listed. Rule for the calls: active = survival T/C of 150% or more; inactive = T/C below 125% in these data.

System: P388 leukemia ip, CD2F1 mice, survival T/C
Test: NCI In Vivo Anticancer Drug Screen. Data for tumor model P388 Leukemia (intraperitoneal) in CD2F1 (CDF1) mice
Conditions: endpoint: median survival time, higher = longer survival
Procedure, shortened: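 Mice carrying the transplanted tumor received test compound or vehicle. Survival was recorded in each group, and the value is the treated-group measurement divided by that of the vehicle-treated control group.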

[1] = dose: 50.0 mg/kg/injection, schedule: Q01DX009 (ip), vehicle: saline with Tween-80
[2] = dose: 50.0 mg/kg/injection, schedule: Q01DX005 (ip), vehicle: saline with Tween-80
[3] = dose: 200.0 mg/kg/injection, schedule: Q01DX005 (ip), vehicle: saline with Tween-80
[4] = dose: 60.0 mg/kg/injection, schedule: Q01DX005 (ip), vehicle: saline with Tween-80
[5] = dose: 120.0 mg/kg/injection, schedule: Q01DX005 (ip), vehicle: saline with Tween-80
[6] = dose: 240.0 mg/kg/injection, schedule: Q01DX005 (ip), vehicle: saline with Tween-80
[7] = dose: 100.0 mg/kg/injection, schedule: Q01DX005 (ip), vehicle: saline with Tween-80
[8] = dose: 50.0 mg/kg/injection, schedule: Q01DX009 (ip), vehicle: Klucel (hydroxypropylcellulose) (HPC)
[9] = dose: 100.0 mg/kg/injection, schedule: Q01DX009 (ip), vehicle: Klucel (hydroxypropylcellulose) (HPC)
[10] = dose: 200.0 mg/kg/injection, schedule: Q01DX009 (ip), vehicle: Klucel (hydroxypropylcellulose) (HPC)
[11] = dose: 50.0 mg/kg/injection, schedule: Q01DX009 (ip), vehicle: saline
[12] = dose: 100.0 mg/kg/injection, schedule: Q01DX009 (ip), vehicle: saline
[13] = dose: 200.0 mg/kg/injection, schedule: Q01DX009 (ip), vehicle: saline
[14] = dose: 400.0 mg/kg/injection, schedule: Q01DX009 (ip), vehicle: saline

Measured: T/C

CN(C)C(=S)SC(=S)Sc1c(Cl)c(Cl)c(Cl)c(Cl)c1Cl
inactive: [1] 99 % of control | dose: 100.0 mg/kg/injection, schedule: Q01DX009 (ip), vehicle: saline with Tween-80 100 % of control | dose: 200.0 mg/kg/injection, schedule: Q01DX009 (ip), vehicle: saline with Tween-80 99 % of control

Cn1c(O)c(N=NC(=S)NC(=O)C23CC4CC(CC(C4)C2)C3)c2ccccc21
inactive: dose: 1.56 mg/kg/injection, schedule: Q01DX005 (ip), vehicle: saline with Tween-80 96 % of control | dose: 3.12 mg/kg/injection, schedule: Q01DX005 (ip), vehicle: saline with Tween-80 97 % of control | dose: 6.25 mg/kg/injection, schedule: Q01DX005 (ip), vehicle: saline with Tween-80 103 % of control | [2] 86 % of control | [3] 89 % of control

CSCSCC(N)CO (stereo unspecified)
inactive: dose: 25.0 mg/kg/injection, schedule: Q01DX005 (ip), vehicle: water 95 % of control | dose: 50.0 mg/kg/injection, schedule: Q01DX005 (ip), vehicle: water 100 % of control | dose: 100.0 mg/kg/injection, schedule: Q01DX005 (ip), vehicle: water 89 % of control | dose: 200.0 mg/kg/injection, schedule: Q01DX005 (ip), vehicle: water 95 % of control | dose: 400.0 mg/kg/injection, schedule: Q01DX005 (ip), vehicle: water 89 % of control

Cc1cc2[nH]c3c(C#N)c(O)c(Cc4ccccc4)c(=O)n3c2cc1C
inactive: [4] 91 % of control | [5] 89 % of control | [6] 90 % of control

CCCN1CCN(c2ccc([N+](=O)[O-])c3no[n+]([O-])c23)CC1
inactive: dose: 1.25 mg/kg/injection, schedule: Q01DX009 (ip), vehicle: saline 98 % of control and 97 % of control | dose: 2.5 mg/kg/injection, schedule: Q01DX009 (ip), vehicle: saline 100 % of control and 107 % of control | dose: 5.0 mg/kg/injection, schedule: Q01DX009 (ip), vehicle: saline 100 % of control and 108 % of control | dose: 10.0 mg/kg/injection, schedule: Q01DX009 (ip), vehicle: saline 110 % of control and 120 % of control

CCCCCCCCCCCCSC(SCCCCCCCCCCCC)c1ccc(OCC(=O)O)cc1
inactive: dose: 25.0 mg/kg/injection, schedule: Q04DX003 (ip), vehicle: DMSO 96 % of control | dose: 50.0 mg/kg/injection, schedule: Q04DX003 (ip), vehicle: DMSO 91 % of control | dose: 100.0 mg/kg/injection, schedule: Q04DX003 (ip), vehicle: DMSO 94 % of control | dose: 200.0 mg/kg/injection, schedule: Q04DX003 (ip), vehicle: DMSO 91 % of control

CCOC(=O)c1nc(N(C)C)oc(=O)c1C
inactive: dose: 60.0 mg/kg/injection, schedule: Q01DX005 (ip), vehicle: saline 101 % of control | dose: 120.0 mg/kg/injection, schedule: Q01DX005 (ip), vehicle: saline 97 % of control | dose: 240.0 mg/kg/injection, schedule: Q01DX005 (ip), vehicle: saline 100 % of control

CCCC(CCC)(C(=O)Nc1ccc2nc(C)cc(N)c2c1)C(=O)Nc1ccc2nc(C)cc(N)c2c1
inactive: [2] 91 % of control | [7] 96 % of control

Cc1cnc(C2OCCO2)c2cccc([N+](=O)[O-])c12
inactive: [8] 105 % of control | [9] 105 % of control | [10] 101 % of control

CCCn1c(C)nc2cc(C(F)(F)F)cc([N+](=O)[O-])c21
inactive: dose: 15.0 mg/kg/injection, schedule: Q01DX005 (ip), vehicle: saline with Tween-80 94 % of control | dose: 30.0 mg/kg/injection, schedule: Q01DX005 (ip), vehicle: saline with Tween-80 99 % of control | [4] 101 % of control and 97 % of control | [5] 98 % of control | [6] 103 % of control

BrCc1cn(Cc2ccccc2)nn1
inactive: [11] 97 % of control | [12] 97 % of control

C=CCc1ccc(C(=O)OCCCCCCCCCC)c(OC)c1
inactive: [8] 103 % of control | [9] 105 % of control | [10] 105 % of control

O=C(CCl)c1ccc2c(c1)N(C(=O)COc1ccccc1)c1ccccc1S2
inactive: dose: 50.0 mg/kg/injection, schedule: Q01DX001 (ip), vehicle: Klucel (hydroxypropylcellulose) (HPC) 89 % of control | dose: 100.0 mg/kg/injection, schedule: Q01DX001 (ip), vehicle: Klucel (hydroxypropylcellulose) (HPC) 91 % of control | dose: 200.0 mg/kg/injection, schedule: Q01DX001 (ip), vehicle: Klucel (hydroxypropylcellulose) (HPC) 96 % of control

CNc1ncnc2c1cnn2C
inactive: [1] 95 % of control | dose: 100.0 mg/kg/injection, schedule: Q04DX003 (ip), vehicle: saline 104 % of control | dose: 200.0 mg/kg/injection, schedule: Q04DX003 (ip), vehicle: saline 109 % of control

Nc1nc(N)nc(NCCSS(=O)(=O)O)n1
inactive: [8] 94 % of control | [9] 94 % of control | [10] 91 % of control

COP(=O)(CC(=O)OC(CC(=O)OCc1ccccc1)C(=O)OCc1ccccc1)OC (stereo unspecified)
inactive: [2] 98 % of control | [7] 92 % of control | [3] 93 % of control

Cc1ccno1
inactive: [11] 105 % of control | [12] 105 % of control | [13] 105 % of control | [14] 100 % of control

CCOC(=O)c1coc(N)n1
inactive: dose: 12.5 mg/kg/injection, schedule: Q01DX009 (ip), vehicle: other 98 % of control | dose: 25.0 mg/kg/injection, schedule: Q01DX009 (ip), vehicle: other 100 % of control | dose: 50.0 mg/kg/injection, schedule: Q01DX009 (ip), vehicle: other 106 % of control | dose: 100.0 mg/kg/injection, schedule: Q01DX009 (ip), vehicle: other 107 % of control | dose: 200.0 mg/kg/injection, schedule: Q01DX009 (ip), vehicle: other 103 % of control

CC(N)C(O)c1ccc(O)cc1 (stereo unspecified)
inactive: [11] 102 % of control and 108 % of control | [12] 101 % of control | [13] 101 % of control and 108 % of control | [14] 87 % of control and 89 % of control

CC(O)c1cc2c(o1)C(=O)c1cccc(O)c1C2=O (stereo unspecified)
inactive: dose: 9.38 mg/kg/injection, schedule: Q01DX005 (ip), vehicle: Klucel (hydroxypropylcellulose) (HPC) 95 % of control | dose: 18.75 mg/kg/injection, schedule: Q01DX005 (ip), vehicle: Klucel (hydroxypropylcellulose) (HPC) 95 % of control | dose: 37.5 mg/kg/injection, schedule: Q01DX005 (ip), vehicle: Klucel (hydroxypropylcellulose) (HPC) 95 % of control

CC(/C=N/Nc1ccccc1)=N\N=c1/scc(-c2ccc(Br)cc2)n1-c1ccc(Br)cc1
inactive: dose: 100.0 mg/kg/injection, schedule: Q04DX002 (ip), vehicle: saline with Tween-80 86 % of control | dose: 200.0 mg/kg/injection, schedule: Q04DX002 (ip), vehicle: saline with Tween-80 86 % of control

CC/C(=C(\c1ccccc1)c1ccc(OCCN(C)C)cc1)c1ccccc1
inactive: dose: 0.78 mg/kg/injection, schedule: Q01DX009 (ip), vehicle: suspension in saline 94 % of control | dose: 1.56 mg/kg/injection, schedule: Q01DX009 (ip), vehicle: suspension in saline 94 % of control | dose: 3.12 mg/kg/injection, schedule: Q01DX009 (ip), vehicle: suspension in saline 94 % of control | dose: 6.25 mg/kg/injection, schedule: Q01DX009 (ip), vehicle: suspension in saline 98 % of control | dose: 12.5 mg/kg/injection, schedule: Q01DX009 (ip), vehicle: Klucel (hydroxypropylcellulose) (HPC) 105 % of control | dose: 12.5 mg/kg/injection, schedule: Q01DX009 (ip), vehicle: suspension in saline 100 % of control | dose: 25.0 mg/kg/injection, schedule: Q01DX009 (ip), vehicle: Klucel (hydroxypropylcellulose) (HPC) 102 % of control | dose: 25.0 mg/kg/injection, schedule: Q01DX009 (ip), vehicle: suspension in saline 104 % of control | dose: 50.0 mg/kg/injection, schedule: Q01DX004 (ip), vehicle: saline with Tween-80 92 % of control | [8] 110 % of control | dose: 50.0 mg/kg/injection, schedule: Q01DX009 (ip), vehicle: suspension in saline 101 % of control | dose: 100.0 mg/kg/injection, schedule: Q01DX004 (ip), vehicle: saline with Tween-80 82 % of control | [9] 117 % of control | dose: 100.0 mg/kg/injection, schedule: Q01DX009 (ip), vehicle: suspension in saline 92 % of control
